What was measured:
[1] = molecular target: T1, MMP2 secreted by HT-1080 cells (Homo sapiens, UniProt P08253); test: Pep1 intracellular fluorescence in HT-1080 cells with MMP2 inhibitor; type: cell-based; settings: HT-1080, Pep1 final 10 μM, MMP2 inhibitor (Figure S3)
T1 construct: endogenous in cells; host or cells: HT-1080 human fibrosarcoma cells
T1 sequence (P08253 110-660): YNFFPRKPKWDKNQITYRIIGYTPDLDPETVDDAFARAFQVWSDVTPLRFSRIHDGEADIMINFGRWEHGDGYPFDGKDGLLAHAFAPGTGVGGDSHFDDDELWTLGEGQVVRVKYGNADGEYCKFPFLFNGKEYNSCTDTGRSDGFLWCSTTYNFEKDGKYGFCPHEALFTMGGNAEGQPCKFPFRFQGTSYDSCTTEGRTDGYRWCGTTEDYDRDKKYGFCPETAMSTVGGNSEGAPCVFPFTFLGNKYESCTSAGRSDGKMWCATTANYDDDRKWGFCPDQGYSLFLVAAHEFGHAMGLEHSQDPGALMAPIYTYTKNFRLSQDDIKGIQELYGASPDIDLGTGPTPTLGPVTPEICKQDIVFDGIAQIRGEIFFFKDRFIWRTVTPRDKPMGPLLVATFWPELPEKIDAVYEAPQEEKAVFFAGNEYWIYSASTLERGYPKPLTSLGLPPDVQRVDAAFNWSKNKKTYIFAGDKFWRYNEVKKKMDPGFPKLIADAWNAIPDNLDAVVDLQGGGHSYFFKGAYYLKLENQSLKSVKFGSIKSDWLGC
Protocol: (§1) For live cell imaging, HT-1080 or HT-29 cells were cultured in Lab-Tek II chambered coverglass (Thermo Fisher Scientific) containers in RPMI-1640 media containing 10% FBS and 1× P/S at 37 °C. When the cells were 80% confluent, the culture medium was rinsed and changed to a fresh serum-free medium, followed by the addition of peptide probes at a final concentration of 10 μM. For organelle images, nuclei and lysosomes (or late endosomes) were stained with NucBlue (1 drop) and Lysotracker Red (50 nM) in serum-free media, respectively, and incubated in the dark for 10 min. After washing of the cells and removal of the chamber, cells adhering to the coverglass were subjected to bright-field or fluorescent images using a confocal microscope (Nikon C2si+, Japan). The excitation/emission wavelengths of NucBlue, FITC, and Lysotracker Red were 352/454 nm, 488/525 nm, and 577/590 nm, respectively. Typically, images were collected using a pixel dwell time of 10.3 μs on a 512 × 512 pixel image with 1 mW light power at the objective through a pinhole (60 μm) to reach the PMT. The frame rate was rather slow; the frame rate was about 0.255 FPS (frame per second) for a 512 × 512 frame (i.e., 1 frame per 3.9 s). To gain time-lapse images for FITC in living cells, one video file was constructed with images taken every 20 s for 30 min. […]

active MMP9 = molecular target: T2, active MMP9 (Homo sapiens, UniProt P14780); test: Fluorescent gel electrophoresis of peptide cleavage by active MMP9; type: biochemical; settings: peptide final 50 μM, active MMP9 final 0.1 μg in 40 μL; 20 mM Tris-HCl, 5 mM CaCl2, 100 mM NaCl, pH 7.6; 120 min, 37 °C; 0.8% agarose gel, FITC fluorescence
T2 construct: active MMP2 (No. PF023), and active MMP9 (No. PF024) were purchased from Merck Millipore; purchased Merck Millipore PF024
T2 sequence (P14780 107-707 limits assumed): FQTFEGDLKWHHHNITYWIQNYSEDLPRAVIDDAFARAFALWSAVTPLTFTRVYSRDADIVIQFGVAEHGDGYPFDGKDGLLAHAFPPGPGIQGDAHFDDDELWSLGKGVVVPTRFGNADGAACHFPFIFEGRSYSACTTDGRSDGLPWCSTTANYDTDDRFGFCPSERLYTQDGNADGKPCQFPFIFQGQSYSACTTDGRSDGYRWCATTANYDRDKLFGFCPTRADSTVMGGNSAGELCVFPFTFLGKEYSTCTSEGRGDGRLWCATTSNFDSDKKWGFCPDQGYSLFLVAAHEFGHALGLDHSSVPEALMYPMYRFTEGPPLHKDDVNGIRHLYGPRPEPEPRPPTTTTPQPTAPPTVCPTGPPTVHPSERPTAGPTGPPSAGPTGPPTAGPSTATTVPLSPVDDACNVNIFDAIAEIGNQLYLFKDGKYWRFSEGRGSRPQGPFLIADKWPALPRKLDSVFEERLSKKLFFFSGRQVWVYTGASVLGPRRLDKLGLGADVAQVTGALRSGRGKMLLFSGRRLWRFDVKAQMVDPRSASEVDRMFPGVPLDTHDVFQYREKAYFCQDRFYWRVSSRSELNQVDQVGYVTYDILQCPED
Protocol: (§2) Fluorescent gel electrophoresis was performed on 0.8% agarose gel at 50 V for 60 min. The agarose gel was cast and run using 0.5 × TB buffer. For the protease assay, Pep1 or Pep2 (1 μL at 2 mM, final 50 μM) was mixed with active MMP2 or active MMP9 (1 μL, final 0.1 μg) at a final volume of 40 μL in standard reaction buffer (20 mM Tris-HCl containing 5 mM CaCl2 and 100 mM NaCl, pH 7.6). The reactants were incubated in a tube for 120 min at 37 °C to induce the enzyme reaction, and 30 μL of the solution were loaded onto the agarose gel. As a control, a solution of Pep1 or Pep 2 (1 μL at 2 mM) without enzymes was resuspended in a reaction buffer (for a total of 40 μL), and the aliquot (30 μL) was used in gel electrophoresis. The fluorescent image of the agarose was captured using a home-built transilluminator equipped with a blue light-emitting diode lamp. The original image underwent a pseudo-color imaging process using an image-editing function in Microsoft PowerPoint 365.

active MMP2 = molecular target: T3, active MMP2 (Homo sapiens, UniProt P08253); test: Fluorescent gel electrophoresis of peptide cleavage by active MMP2; type: biochemical; settings: peptide final 50 μM, active MMP2 final 0.1 μg in 40 μL; 20 mM Tris-HCl, 5 mM CaCl2, 100 mM NaCl, pH 7.6; 120 min, 37 °C; 0.8% agarose gel, FITC fluorescence
T3 construct: active MMP2 (No. PF023), and active MMP9 (No. PF024) were purchased from Merck Millipore; purchased Merck Millipore PF023
T3 sequence (P08253 110-660): T1 sequence (P08253 110-660)
Protocol: as §2

[2] = test system: HT-1080 cells (MMP2-positive); test: Live cell confocal imaging of peptide uptake in HT-1080 cells; type: cell-based, Human; settings: for intracellular fluorescence (confocal images, FITC channel): HT-1080, peptide final 10 μM in serum-free CM, 2 h after treatment
Protocol: For live cell imaging, HT-1080 or HT-29 cells were cultured in Lab-Tek II chambered coverglass (Thermo Fisher Scientific) containers in RPMI-1640 media containing 10% FBS and 1× P/S at 37 °C. When the cells were 80% confluent, the culture medium was rinsed and changed to a fresh serum-free medium, followed by the addition of peptide probes at a final concentration of 10 μM. For organelle images, nuclei and lysosomes (or late endosomes) were stained with NucBlue (1 drop) and Lysotracker Red (50 nM) in serum-free media, respectively, and incubated in the dark for 10 min. After washing of the cells and removal of the chamber, cells adhering to the coverglass were subjected to bright-field or fluorescent images using a confocal microscope (Nikon C2si+, Japan). The excitation/emission wavelengths of NucBlue, FITC, and Lysotracker Red were 352/454 nm, 488/525 nm, and 577/590 nm, respectively. Typically, images were collected using a pixel dwell time of 10.3 μs on a 512 × 512 pixel image with 1 mW light power at the objective through a pinhole (60 μm) to reach the PMT. The frame rate was rather slow; the frame rate was about 0.255 FPS (frame per second) for a 512 × 512 frame (i.e., 1 frame per 3.9 s). To gain time-lapse images for FITC in living cells, one video file was constructed with images taken every 20 s for 30 min. Imaging analysis was performed using the NIS-Elements microscope imaging software (Ver 2.0).

[3] = test system: HT-29 cells (MMP2-negative); test: Live cell confocal imaging of peptide uptake in HT-29 cells; type: cell-based, Human
Protocol: as §1

HeLa cells = test: Peptide uptake in HeLa cells; type: cell-based; settings: unlike HT-1080 cells
[4] = FITC fluorescence; no reference given; cited from earlier work
Protocol: Figure 4A,B were nearly identical to the images obtained at 2 h in Figure 3A,B, respectively. […] There was no signi ...

Row | Compound | cleavage by active MMP9 (fluorescent band shift on agarose gel) (active MMP9) | cleavage by active MMP2 (fluorescent band shift on agarose gel) (active MMP2) | intracellular fluorescence (confocal images, FITC channel) ([2]; 37 °C) | uptake by HeLa cells (HeLa cells) | other results
1 | O=C(O)[C@@H](Cc1ccccc1)NS(=O)(=O)c1ccc(-c2ccccc2)cc1 [MMP2 inhibitor, (2R)-2-[(4-biphenylylsulfonyl)amino]-3-phenylpropionic acid] |  |  |  |  | effect on intracellular fluorescence intensity of Pep1 [1]: significantly reduced
2 | EEEEGGIPVSLRSGGGRRRRK-FITC [Pep1] | less effective than that by MMP2 | strong fluorescent band shift | strong fluorescence images |  | cellular uptake ([2]; HT-1080 cells, 30 min, percentage of FITC-stained cells over total cells): 40~60%; time-lapse signal intensity (0 to 30 min) ([2]; living HT-1080, peptide final 10 μM, 37 °C, compared to Pep2, triplicate experiments): increased even after just 5 min; intracellular fluorescence (confocal images, FITC channel) ([3]; HT-29, peptide final 10 μM in serum-free CM, 2 h after treatment, 37 °C): No significant fluorescence images; time-lapse fluorescence (30 min) ([3]; living HT-29, Pep1 final 10 μM, 30 min): no significant increase
3 | EEEEGGRRRRK-FITC [Pep2] | did not show any fluorescent band shifts | did not show any fluorescent band shifts | No significant fluorescence images |  | 
4 | GGIPVSLRSGGGRRRRK-FITC [Pep3, FITC-labeled positive control peptide without E4] |  |  | strong fluorescence images | did not take up | 
5 | LRSGGG-R4-FITC [cleaved Pep1, fluorescent fragment of Pep1 after MMP2 cleavage] |  |  |  | did not take up | 
6 | fluorescein isothiocyanate [FITC] |  |  |  |  | pKa [4]: 6.5

Source: PMC8836073, “Activatable Peptides for Rapid and Simple Visualization of Protease Activity Secreted in Living Cells” (International Journal of Molecular Sciences, 2022)
